According to patent US6544986B2, “Pyridones and their use as modulators of serine hydrolase enzymes” (Dalhousie University, priority 2000, dated 2003):
“Also recorded” adds a separate entry of the source.

Tests used:
[1] = target: human AChE (Homo sapiens, UniProt P22303); assay: Esterase activity assay (modified Ellman), AChE with acetylthiocholine; format: biochemical; conditions: substrate acetylthiocholine; for Ki: read-out: Esterase Ki AChE(h)
Experimental: (§1) The esterase activity of BuChE or AChE was determined by a modification of the method described by Ellman et al. (32), using a buffered 5,5′-dithiobis (2-nitrobenzoic acid) (DTNB) solution. Stock DTNB solution consisted of 10 mM DTNB with 18 mM sodium bicarbonate in 0.1 M phosphate buffer, pH 7.0. Working DTNB solution was prepared by mixing 3.6 mL of 10 mM stock DTNB solution with 96.4 mL of 0.1 M phosphate buffer at pH 8.0. The assay was carried out by mixing 2.7.mL of buffered DTNB working solution (pH 8.0), 0.1 mL of BuChE or AChE in 0.005% aqueous gelatin (1 U/mL), and 0.1 mL of 50% aqueous acetonitrile, or a solution of a 2-pyridone compound of the invention in the same solvent, in a quartz cuvette of 1 cm path-length. Absorbance of this solution was calibrated to zero and the reaction was commenced by adding 0.1 mL of aqueous acetylthiocholine (AcSCh) or butyrylthiocholine (BuSCh) solutions of varying concentration (between 1.9 mM and 15 mM). The final volume was always 3.0 mL. The reactions were carried out at room temperature. The rate of change of absorbance (ΔA/min), reflecting the rate of hydrolysis of BuSCh or AcSCh, was recorded every 5 seconds for a total of 1 minute using a Milton-Roy uv-visible spectrophotometer set at λ=412 nm.
(§2) The slopes of Lineweaver-Burk plots versus Log of inhibitor concentration were used to determine the inhibitor constant Ki.
(§3) The effect of increasing amount of exemplified 2-pyridone compounds (Examples 1 to 10) on the activity of human BuChE and AChE is shown in FIGS. 1 to 10.
(§4) The compounds of Examples 1 to 9 inhibited BuChE and AChE to varying degrees. Graphs of the slopes obtained from Lineweaver-Burk double reciprocal graphs versus log of the concentration of each compound gave the inhibition constant Ki for each compound.

[2] = target: human BuChE (Homo sapiens, UniProt P06276); assay: Esterase activity assay (modified Ellman), BuChE with butyrylthiocholine; format: biochemical; conditions: for Ki: substrate butyrylthiocholine, pH 8.0, room temperature, from slopes of Lineweaver-Burk plots vs log concentration, read-out: Esterase Ki BuChE(h)
human BuChE, sequence (P06276 29-602): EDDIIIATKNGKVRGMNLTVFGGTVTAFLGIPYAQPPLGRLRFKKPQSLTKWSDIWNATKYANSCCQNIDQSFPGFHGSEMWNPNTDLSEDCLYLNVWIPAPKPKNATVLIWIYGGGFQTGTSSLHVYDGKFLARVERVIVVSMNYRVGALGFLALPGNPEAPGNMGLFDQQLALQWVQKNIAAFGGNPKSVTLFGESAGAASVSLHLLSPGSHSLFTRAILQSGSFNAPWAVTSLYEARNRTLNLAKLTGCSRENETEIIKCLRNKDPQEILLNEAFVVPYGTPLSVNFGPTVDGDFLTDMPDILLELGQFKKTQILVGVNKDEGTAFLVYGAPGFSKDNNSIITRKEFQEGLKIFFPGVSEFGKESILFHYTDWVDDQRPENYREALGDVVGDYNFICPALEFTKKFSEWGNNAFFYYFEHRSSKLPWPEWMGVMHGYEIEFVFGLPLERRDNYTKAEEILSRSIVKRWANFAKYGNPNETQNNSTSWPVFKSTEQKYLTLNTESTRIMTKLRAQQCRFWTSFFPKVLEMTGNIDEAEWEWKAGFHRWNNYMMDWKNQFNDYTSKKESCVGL
Experimental: as §1, §2, §3, §4

[3] = test system: human trypsin; assay: Trypsin activity assay (BAPNA hydrolysis, HPLC of PNA), trypsin; format: biochemical; conditions: substrate BAPNA, Tris buffer pH 8.0, 40° C.; FIG. 12
Experimental: (§5) The effect of 2-pyridone compounds on trypsin-like enzymatic activity associated with BuChE and that of human trypsin was determined using Nα-benzoyl-DL-arginine-p-nitroanilide (BAPNA) as the substrate. The same procedure was used to study the effect of the compounds on BuChE-trypsin mixture. Reactions were performed in 0.06 M Tris buffer at pH 8.0. […] The incubations were carried out in 1.5 mL Eppendorf tubes by mixing 0.85 mL of 0.06 M Tris buffer (pH 8.0), 0.07 mL of up to 10 mM BAPNA, 0.03 mL of 50% aqueous acetonitrile, or a solution of 2-pyridone compound (typically, a 5 mM working solution) in the same solvent, and 0.05 mL of the enzyme solution (0.5-1.5 U of trypsin in 1 mM hydrochloric acid, or up to 5.0 U of BuChE in 0.005% aqueous gelatin). The final volume of the assay mixture was always 1.0 mL. The enzyme reaction mixture was incubated at 40° C. for 15-45 hours. The use of 1.5 U of trypsin gave an amount of p-nitroaniline (PNA) produced upon cleavage of BAPNA by trypsin after 22 hours of incubation that was similar to the amount of product formed by trypsin-like activity associated with 5 U of BuChE under the same conditions.
(§6) The concentration of the PNA was determined by means of high performance liquid chromatography (HPLC). […] The rate of formation of PNA was calculated by using the following formula: […]

[4] = test system: trypsin-like enzymatic activity associated with BuChE; assay: Trypsin activity assay (BAPNA hydrolysis, HPLC of PNA), trypsin-like activity associated with BuChE; format: biochemical, human; conditions: substrate BAPNA, Tris buffer pH 8.0, 40° C.; FIG. 11
Experimental: as §5, §6

[5] = pH 8.0, room temperature, from slopes of Lineweaver-Burk plots vs log concentration

human AChE, sequence (P22303 32-614): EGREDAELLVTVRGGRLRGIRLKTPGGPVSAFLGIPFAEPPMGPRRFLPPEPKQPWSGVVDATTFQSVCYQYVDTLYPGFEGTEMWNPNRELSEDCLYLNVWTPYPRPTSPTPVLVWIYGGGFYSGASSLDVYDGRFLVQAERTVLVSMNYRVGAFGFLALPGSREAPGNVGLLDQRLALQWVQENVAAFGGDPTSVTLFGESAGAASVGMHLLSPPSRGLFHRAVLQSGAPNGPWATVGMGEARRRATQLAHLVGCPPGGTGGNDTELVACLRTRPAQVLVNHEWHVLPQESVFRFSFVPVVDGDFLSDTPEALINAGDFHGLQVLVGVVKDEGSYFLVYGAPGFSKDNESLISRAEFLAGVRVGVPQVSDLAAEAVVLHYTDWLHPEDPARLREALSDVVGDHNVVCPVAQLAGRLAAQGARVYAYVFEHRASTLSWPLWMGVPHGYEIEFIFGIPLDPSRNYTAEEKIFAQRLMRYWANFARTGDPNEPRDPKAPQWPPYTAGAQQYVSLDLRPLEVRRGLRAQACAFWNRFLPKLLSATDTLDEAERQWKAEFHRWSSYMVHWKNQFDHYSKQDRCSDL

Row | Compound | Ki [1, 5] | Ki [2] | effect on enzymatic activity of trypsin itself [3] | effect on trypsin-like activity associated with BuChE (rate of hydrolysis of BAPNA) [4] | inhibitory activity towards each cholinesterase studied (comparison) ([2]; BuChE versus AChE) | inhibition of the activity of AChE on acetylthiocholine (in words) [1] | Esterase Ki AChE(h) [1, 5]
1 | O=C(c1ccc(=O)[nH]c1)N(Cc1ccccc1)Cc1ccccc1 [Example 1, 5-(N,N-Dibenzyl)aminocarbonyl-2-pyridone] | 0.26 mM | 0.0375 mM | do not have direct effect on trypsin alone | increased the rate of hydrolysis; also recorded: considerably enhanced |  |  | 
2 | CC(C)N(C(=O)c1ccc(=O)[nH]c1)C(C)C [Example 2, 5-(N,N-Diisopropyl)aminocarbonyl-2-pyridone] | 0.131 mM | 1.43 mM |  |  |  |  | 
3 | CCN(CC)C(=O)c1ccc(=O)[nH]c1 [Example 3, 5-(N,N-Diethyl)aminocarbonyl-2-pyridone] | 7.6 mM | 1.3 mM |  |  |  |  | 
4 | CCN(CC)Cc1ccc(=O)[nH]c1 [Example 4, 5-(N,N-Diethyl)aminomethyl-2-pyridone] | 4.77 mM | 3.89 mM |  |  | equal inhibitory activity |  | 
5 | O=C(NC1CCCCC1)c1ccc(=O)[nH]c1 [Example 7, 5-(N-Cyclohexyl)aminocarbonyl-2-pyridone] |  | 0.137 mM |  |  |  | no inhibition | Insignificant inhibition
